Here are results for one compound from patent publication US5516759A, “LHRH antagonists having lactam groups at the N-terminus” (TAP Holdings Inc., priority 1994, dated 1996).

The target in this assay is T1, LHRH (Rattus norvegicus, UniProt P30969).
T1 construct: endogenous in cells
T1 sequence (P30969 1-327): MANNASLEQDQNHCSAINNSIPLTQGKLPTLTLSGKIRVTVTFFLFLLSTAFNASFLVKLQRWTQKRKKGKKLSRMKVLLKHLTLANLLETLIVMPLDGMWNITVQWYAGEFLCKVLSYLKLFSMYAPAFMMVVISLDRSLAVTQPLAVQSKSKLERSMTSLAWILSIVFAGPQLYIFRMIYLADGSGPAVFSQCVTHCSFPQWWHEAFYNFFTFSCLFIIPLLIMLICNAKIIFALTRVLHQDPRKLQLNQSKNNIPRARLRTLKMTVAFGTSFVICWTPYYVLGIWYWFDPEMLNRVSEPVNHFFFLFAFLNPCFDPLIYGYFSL
Description: in vitro test for LHRH antagonist potency (pA2). In kind it is cell-based. Particulars: negative logarithm of the antagonist concentration required to shift the response curve produced by the agonist leuprolide to two-fold higher concentration. As to the method: Representative compounds of the present invention were evaluated in an in vitro test for LHRH antagonist potency (pA2). The test employed the method detailed in F. Haviv, et al. J. Med. Chem., 32:2340-2344 (1989). The values of pA2 are the negative logarithms of the concentration of the particular antagonist test compound required to shift the response curve produced by the agonist leuprolide to two-fold higher concentration. (Leuprolide is disclosed and claimed in U.S. Pat. No. 4,005,063.) Typically pA2 values of 9.5 or greater are indicative of good LHRH antagonist potency, with values of 10.0 or greater being preferred.

Where a SMILES comes first, the peptide text is derived from it. [ ]: non-standard residue; d: D form. The star is where a group is joined. Acetyl(2-oxopyrrolidin-1-yl) = O=C1CCCN1CC(=O)*; dPhe(4-Cl) = N[C@H](Cc1ccc(Cl)cc1)C(=O)O; d1Nal = N[C@H](Cc1cccc2ccccc12)C(=O)O; NMeY = CN[C@@H](Cc1ccc(O)cc1)C(=O)O; dCit = NC(=O)NCCC[C@@H](N)C(=O)O

`CC(C)C[C@H](NC(=O)[C@@H](CCCNC(N)=O)NC(=O)[C@H](Cc1ccc(O)cc1)N(C)C(=O)[C@H](CO)NC(=O)[C@@H](Cc1cccc2ccccc12)NC(=O)[C@@H](Cc1ccc(Cl)cc1)NC(=O)CN1CCCC1=O)C(=O)N[C@@H](CCCNC(=N)N)C(=O)N1CCC[C@H]1C(=O)N[C@H](C)C(N)=O` [Example 14, 5LactGly^1 -D4ClPhe^2 -D1Nal^3 -Ser^4 -NMeTyr^5 -DCit^6 -Leu^7 -Arg^8 -Pro^9 -DAla^10 NH2] ({Acetyl(2-oxopyrrolidin-1-yl)}-[dPhe(4-Cl)][d1Nal]S[NMeY][dCit]LRP[dA]-NH2): the Kb was 0.0178 nM.

The term Kb denotes the equilibrium dissociation constant of an antagonist, usually derived from a functional assay.
